We go through two compounds from US10604554B2, “Double-acylated GLP-1 derivatives” (Novo Nordisk A/S, priority 2012, dated 2020).

One series addresses T1, human GLP-1 receptor (Homo sapiens, UniProt P43220).
T1 construct: expressed in transfected cells; host or cells: BHK cells, clone FCW467-12A/KZ10-1 (parent line BHKTS13), further transfected with CRE luciferase
In words: In vitro potency (AlphaScreen cAMP, membranes). The class given is biochemical. The procedure: The purpose of this example is to test the activity, or potency, of the GLP-1 derivatives in vitro.
Purified plasma membranes from a stable transfected cell line, BHK467-12A (tk-ts13), expressing the human GLP-1 receptor were stimulated with the GLP-1 analogue or derivative in question, and the potency of cAMP production was measured using the AlphaScreen™ cAMP Assay Kit from Perkin Elmer Life Sciences. The basic principle of the AlphaScreen Assay is a competition between endogenous cAMP and exogenously added biotin-cAMP. The capture of cAMP is achieved by using a specific antibody conjugated to acceptor beads.
A stable transfected cell line and a high expressing clone were selected for screening. The cells were grown at 5% CO2 in DMEM, 5% FCS, 1% Pen/Strep (Penicillin/Streptomycin) and 0.5 mg/ml of the selection marker G418.
Cells at approximately 80% confluence were washed 2× with PBS and harvested with Versene (aqueous solution of the tetrasodium salt of ethylenediaminetetraacetic acid), centrifuged 5 min at 1000 rpm and the supernatant removed. The additional steps were all performed on ice. The cell pellet was homogenised by the Ultrathurax for 20-30 s in 10 ml of Buffer 1 (20 mM Na-HEPES, 10 mM EDTA, pH=7.4), centrifuged 15 min at 20,000 rpm and the pellet resuspended in 10 ml of Buffer 2 (20 mM Na-HEPES, 0.1 mM EDTA, pH=7.4). The suspension was homogenised for 20-30 s and centrifuged 15 min at 20,000 rpm. Suspension in Buffer 2, homogenisation and centrifugation was repeated once and the membranes were resuspended in Buffer 2. The protein concentration was determined and the membranes stored at −80° C. until use.
The assay was performed in flat-bottom 96-well plates (Costar cat. no:3693). The final volume per well was 50 μl.
AlphaScreen cAMP Assay Kit from Perkin Elmer Life Sciences (cat. No: 6760625M); containing Anti-cAMP Acceptor beads (10 U/μl), Streptavidin Donor beads (10 U/μl) and Biotinylated-cAMP (133 U/μl).
AlphaScreen Buffer, pH=7.4: 50 mM TRIS-HCl (Sigma, cat.no: T3253); 5 mM HEPES (Sigma, cat.no: H3375); 10 mM MgCl2, 6H2O (Merck, cat.no: 5833); 150 mM NaCl (Sigma, cat.no: S9625); 0.01% Tween (Merck, cat.no: 822184). The following was added to the AlphaScreen Buffer prior to use (final concentrations indicated): BSA (Sigma, cat. no. A7906): 0.1%; IBMX (Sigma, cat. no. 15879): 0.5 mM; ATP (Sigma, cat. no. A7699): 1 mM; GTP (Sigma, cat. no. G8877): 1 uM.
cAMP standard (dilution factor in assay=5): cAMP Solution: 5 μL of a 5 mM cAMP-stock+495 μL AlphaScreen Buffer.
Membranes were prepared from hGLP-1/BHK 467-12A cells with a concentration of 6 μg/well corresponding to 0.6 mg/ml (the amount of membranes used pr. well may vary)
“No membranes”: Acceptor Beads (15 μg/ml final) in AlphaScreen buffer
“6 μg/well membranes”: membranes+Acceptor Beads (15 μg/ml final) in AlphaScreen buffer
An aliquot (10 μl) of “No membranes” was added to the cAMP standard (per well in duplicate wells) and the positive and negative controls
An aliquot (10 μl) of “6 μg/well membranes” was added to GLP-1 and analogues (per well in duplicate or triplicate wells)
Pos. Control: 10 μl “no membranes”+10 μl AlphaScreen Buffer
Neg. Control: 10 μl “no membranes”+10 μl cAMP Stock Solution (50 μM)
As the beads are sensitive to direct light, any handling was in the dark (as dark as possible), or in green light. All dilutions were made on ice.
1. Make the AlphaScreen Buffer.
2. Dissolve and dilute the GLP-1/Analogues/cAMP standard in AlphaScreen Buffer.
3. Make the Donor Beads Solution by mixing streptavidin donor beads (2 units/well) and biotinylated cAMP (1.2 units/well) and incubate 20-30 min in the dark at room temperature
4. Add the cAMP/GLP-1/Analogues to the plate: 10 μl per well.
5. Prepare membrane/Acceptor Beads solution and add this to the plates: 10 μl per well.
6. Add the Donor Beads: 30 μl per well.
7. Wrap the plate in aluminum foil and incubate on the shaker for 3 hours (very slowly) at RT.
(In general: Bead proximity is the source of the signal in Alpha formats.)

Series [1] is described as follows: Pharmacokinetic (PK) study in rat. The following applies: male, Sprague Dawley, in vivo, iv, 6 nmol/kg.
Series [2] in a line: Pharmacokinetic (PK) study in minipig. The following applies: male, Göttingen, in vivo, iv.
Description: The purpose of this study is to determine the protraction in vivo of the GLP-1 derivatives after i.v. administration to minipigs, i.e. the prolongation of their time of action. This is done in a pharmacokinetic (PK) study, where the terminal half-life of the derivative in question is determined. By terminal half-life is generally meant the period of time it takes to halve a certain plasma concentration, measured after the initial distribution phase.
Study A: Male Göttingen minipigs were obtained from Ellegaard Göttingen Minipigs (Dalmose, Denmark) approximately 7-14 months of age and weighing from approximately 16-35 kg were used in the studies. The minipigs were housed individually and fed restrictedly once or twice daily with SDS minipig diet (Special Diets Services, Essex, UK). After at least 2 weeks of acclimatisation two permanent central venous catheters were implanted in vena cava caudalis or cranialis in each animal. The animals were allowed 1 week recovery after the surgery, and were then used for repeated pharmacokinetic studies with a suitable wash-out period between successive GLP-1 derivative dosings.
The animals were fasted for approximately 18 h before dosing and from 0 to 4 h after dosing, but had ad libitum access to water during the whole period.
The GLP-1 derivatives were dissolved in 50 mM sodium phosphate, 145 mM sodium chloride, 0.05% tween 80, pH 7.4 to a concentration of usually from 20-60 nmol/ml. […] Blood samples (for example 0.8 ml) were collected in EDTA buffer (8 mM) and then centrifuged at 4° C. and 1942 G for 10 minutes.
Study B: Male Göttingen minipigs were obtained from Ellegaard Göttingen Minipigs (Dalmose, Denmark) approximately 5 months of age and weighing from approximately 9 kg were used in the studies. The minipigs were housed in pens with straw as bedding, six together in each pen and fed restrictedly once or twice daily with Altromin 9023 minipig diet (Chr. Petersen A/S, DK-4100 Ringsted) or Standard SMP(E) minipig diet (Special Diet Services (SDS), UK). The pigs were used for repeated pharmacokinetic studies with a suitable wash-out period between successive GLP-1 derivative dosings.
The GLP-1 derivatives were dissolved in 50 mM sodium phosphate, 145 mM sodium chloride, 0.05% tween 80, pH 7.4 to a concentration of usually from 20-60 nmol/ml. Intravenous injections (the volume corresponding to usually 2 nmol/kg, for example 0.1 ml/kg) of the compounds were given as intravenous injections via a Venflon inserted in an ear vein, while they are placed unanaesthetised in a sling. The dose volume was 0.1 ml/kg, and blood was sampled at predefined time points for up till 17 days post dosing (samples was taken with syringe from a jugular vein).
Individual plasma concentration-time profiles were analyzed by a non-compartmental model in Phoenix WinNonLin ver. […] (Pharsight Inc., Mountain View, Calif., USA), and the resulting terminal half-lives (harmonic mean) determined.

T1 sequence (P43220 24-463): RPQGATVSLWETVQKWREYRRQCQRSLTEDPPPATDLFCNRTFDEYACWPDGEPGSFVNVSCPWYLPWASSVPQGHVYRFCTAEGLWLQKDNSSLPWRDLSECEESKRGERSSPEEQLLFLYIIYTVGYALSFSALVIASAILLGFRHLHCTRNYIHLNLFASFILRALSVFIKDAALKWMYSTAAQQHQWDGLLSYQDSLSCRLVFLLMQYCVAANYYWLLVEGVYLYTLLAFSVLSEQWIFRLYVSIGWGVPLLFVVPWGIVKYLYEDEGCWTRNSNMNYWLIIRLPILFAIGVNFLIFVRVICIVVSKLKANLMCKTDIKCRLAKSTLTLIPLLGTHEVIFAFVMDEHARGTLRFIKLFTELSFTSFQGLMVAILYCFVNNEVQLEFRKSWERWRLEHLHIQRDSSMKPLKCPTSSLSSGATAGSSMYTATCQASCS

In turn, `CC[C@H](C)[C@H](NC(=O)[C@H](Cc1ccccc1)NC(=O)[C@H](CCC(=O)O)NC(=O)[C@H](CCCCNC(=O)[C@@H](N)CCCCNC(=O)CC[C@H](NC(=O)CC[C@H](NC(=O)CC[C@H](NC(=O)CCCCCCCCCCCOc1ccc(C(=O)O)cc1)C(=O)O)C(=O)O)C(=O)O)NC(=O)[C@H](C)NC(=O)[C@H](C)NC(=O)[C@H](CCC(N)=O)NC(=O)CNC(=O)[C@H](CCC(=O)O)NC(=O)[C@H](CC(C)C)NC(=O)[C@H](Cc1ccc(O)cc1)NC(=O)[C@H](CO)NC(=O)[C@H](CO)NC(=O)[C@@H](NC(=O)[C@H](CC(=O)O)NC(=O)[C@H](CO)NC(=O)[C@@H](NC(=O)[C@H](Cc1ccccc1)NC(=O)[C@@H](NC(=O)CNC(=O)[C@H](CCC(=O)O)NC(=O)C(C)(C)NC(=O)[C@@H](N)Cc1c[nH]cn1)[C@@H](C)O)[C@@H](C)O)C(C)C)C(=O)N[C@@H](C)C(=O)N[C@@H](Cc1c[nH]c2ccccc12)C(=O)N[C@@H](CC(C)C)C(=O)N[C@H](C(=O)N[C@@H](CCCNC(=N)N)C(=O)NCC(=O)N[C@@H](CCCNC(=N)N)C(=O)N[C@@H](CCCCNC(=O)[C@@H](N)CCCCNC(=O)CC[C@H](NC(=O)CC[C@H](NC(=O)CC[C@H](NC(=O)CCCCCCCCCCCOc1ccc(C(=O)O)cc1)C(=O)O)C(=O)O)C(=O)O)C(=O)O)C(C)C` [Example 17, N^ε26-[(2S)-2-amino-6-[[(4S)-4-carboxy-4-[[(4S)-4-carboxy-4-[[(4S)-4-carboxy-4-[12-(4-carboxyphenoxy)dodecanoylamino]butanoyl]amino]butanoyl]amino]butanoyl]amino]hexanoyl], N^ε37-[(2S)-2-amino-6-[[(4S)-4-carboxy-4-[[(4S)-4-carboxy-4-[[(4S)-4-carboxy-4-[12-(4-carboxyphenoxy)dodecanoylamino]butanoyl]amino]butanoyl]amino]butanoyl]amino]hexanoyl]-[Aib^8,Arg^34,Lys^37]-GLP-1-(7-37)-peptide] returned an EC50 on human GLP-1 receptor of 286 pM. Moreover, the half-life in series [1] is 24 h; in series [2], 71 h.

In turn, `CC[C@H](C)[C@H](NC(=O)[C@H](Cc1ccccc1)NC(=O)[C@H](CCC(=O)O)NC(=O)[C@H](CCCCNC(=O)[C@@H](N)CCCCNC(=O)COCCOCCNC(=O)COCCOCCNC(=O)CC[C@H](NC(=O)CCCCCCCCCCCOc1ccc(C(=O)O)cc1)C(=O)O)NC(=O)[C@H](C)NC(=O)[C@H](C)NC(=O)[C@H](CCC(N)=O)NC(=O)CNC(=O)[C@H](CCC(=O)O)NC(=O)[C@H](CC(C)C)NC(=O)[C@H](Cc1ccc(O)cc1)NC(=O)[C@H](CO)NC(=O)[C@H](CO)NC(=O)[C@@H](NC(=O)[C@H](CC(=O)O)NC(=O)[C@H](CO)NC(=O)[C@@H](NC(=O)[C@H](Cc1ccccc1)NC(=O)[C@@H](NC(=O)CNC(=O)[C@H](CCC(=O)O)NC(=O)C(C)(C)NC(=O)[C@@H](N)Cc1c[nH]cn1)[C@@H](C)O)[C@@H](C)O)C(C)C)C(=O)N[C@@H](C)C(=O)N[C@@H](Cc1c[nH]c2ccccc12)C(=O)N[C@@H](CC(C)C)C(=O)N[C@H](C(=O)N[C@@H](CCCNC(=N)N)C(=O)NCC(=O)N[C@@H](CCCNC(=N)N)C(=O)N[C@@H](CCCCNC(=O)[C@@H](N)CCCCNC(=O)COCCOCCNC(=O)COCCOCCNC(=O)CC[C@H](NC(=O)CCCCCCCCCCCOc1ccc(C(=O)O)cc1)C(=O)O)C(=O)O)C(C)C` [Example 14, N^ε26-[(2S)-2-amino-6-[[2-[2-[2-[[2-[2-[2-[[(4S)-4-carboxy-4-[12-(4-carboxyphenoxy)dodecanoylamino]butanoyl]amino]ethoxy]ethoxy]acetyl]amino]ethoxy]ethoxy]acetyl]amino]hexanoyl], N^ε37-[(2S)-2-amino-6-[[2-[2-[2-[[2-[2-[2-[[(4S)-4-carboxy-4-[12-(4-carboxyphenoxy)dodecanoylamino]butanoyl]amino]ethoxy]ethoxy]acetyl]amino]ethoxy]ethoxy]acetyl]amino]hexanoyl]-[Aib^8,Arg^34, Lys^37]-GLP-1-(7-37)-peptide] yielded an EC50 on human GLP-1 receptor of 280 pM. Moreover, the results for the half-life in series [1] and in series [2] were 19 h and 88 h, respectively.

For orientation: EC50 means the concentration at which the effect is half-maximal. High values mean a less potent agent, low ones a more potent agent. For orientation: half-life means the time needed for the level to fall by half in the phase considered.
